Consider two molecules from article PMC4710522, “A Novel Triazolopyridine-Based Spleen Tyrosine Kinase Inhibitor That Arrests Joint Inflammation” (PLoS ONE, 2016).

In one experiment the target is T1, 5-lipoxygenase (Homo sapiens, UniProt P09917).
T1 construct: CEREP (contract assay)
Description: non-kinase enzyme panel (CEREP). Format: biochemical. The protocol: (§1) Syk kinase mode of inhibition studies, including parameters described in Fig 1, were conducted on the LC3000 platform by Caliper Life Sciences (Hopkinton, MA) according to standard protocols developed by the supplier. […] Non-kinase enzyme assays and GPCR, ion channel, and transporter binding assays were run by CEREP (France). Non-GLP manual patch clamp hERG assays were run by ChanTest (Cleveland, Ohio). Vivid® Assay kits (Life Technologies) were used to measure the cytochrome P450 inhibition of the compound against CYP3A, CYP2C9, CYP2C19, CYP2D6, and CYP1A2, as described.

The next experiment has as its target T2, EGFR_T790M_L858R_h (Homo sapiens, UniProt P00533, L858R/T790M).
T2 construct: purchased Life Technologies (Invitrogen) SelectScreen, Z'-LYTE / Adapta
Description: SelectScreen kinase assay. Format: biochemical. To be noted: KM ATP, read-out: % control. The protocol: as §1
(§2) Kinase activity was measured using either the Z’-Lyte® or the Adapta® protocols as part of the SelectScreen™ profiling service offered at Life Technologies (Grand Island, NY). For the single point measurements (Part A), CC-509 was kept constant at 3 µM while ATP concentrations [ATP] used were at the KM for ATP (KM ATP) for that specific enyzme, at 10 or 100 µM ATP (10 ATP or 100 ATP, respectively), as indicated. Values expressed as percent control (% control) relative to DMSO-only wells (uninhibited, 100%).
(§3) Kinase activity was measured using either the Z’-Lyte® or the Adapta® protocols as part of the SelectScreen™ profiling service offered at Life Technologies (Grand Island, NY). […] Values expressed as percent control (% control) relative to DMSO-only wells (uninhibited, 100%).

In a further experiment the target is T3, MuSK_h (Homo sapiens, UniProt O15146).
T3 construct: purchased Life Technologies (Invitrogen) SelectScreen, Z'-LYTE / Adapta
Description: SelectScreen kinase assay. To be noted: KM ATP, read-out: % control. Format: biochemical. How it is done:
as §1, §2, §3

For the next experiment, the target named is T4, EphA8_h (Homo sapiens, UniProt P29322).
T4 construct: purchased Life Technologies (Invitrogen) SelectScreen, Z'-LYTE / Adapta
Description: SelectScreen kinase assay. Format: biochemical. To be noted: KM ATP, read-out: % control. How it is done: as §1, §2, §3

In another experiment the target is T5, MAPKAP-K2_h (Homo sapiens, UniProt P49137).
T5 construct: purchased Life Technologies (Invitrogen) SelectScreen, Z'-LYTE / Adapta
The experiment is described as follows: SelectScreen kinase assay. The format is biochemical. To be noted: KM ATP, read-out: % control. How it is done:
as §1, §2, §3

The target of another experiment is T6, ROCK-I_h (Homo sapiens, UniProt Q13464).
T6 construct: purchased Life Technologies (Invitrogen) SelectScreen, Z'-LYTE / Adapta
Description: SelectScreen kinase assay. Particulars: KM ATP, read-out: % control. The format is biochemical. The protocol: as §1, §2, §3

In the next experiment the target is T7, IKK-beta_h (Homo sapiens, UniProt O14920).
T7 construct: purchased Life Technologies (Invitrogen) SelectScreen, Z'-LYTE / Adapta
The experiment is described as follows: SelectScreen kinase assay. The format is biochemical. Particulars: KM ATP, read-out: % control. How it is done: as §1, §2, §3

The next experiment addresses T8, EGFR_h (Homo sapiens, UniProt P00533).
T8 construct: purchased Life Technologies (Invitrogen) SelectScreen, Z'-LYTE / Adapta
Description: SelectScreen kinase assay. Format: biochemical. Particulars: KM ATP, read-out: % control. How it is done: as §1, §2, §3

The target in the next experiment is T9, PTK5_h (Homo sapiens, UniProt P42685).
T9 construct: purchased Life Technologies (Invitrogen) SelectScreen, Z'-LYTE / Adapta
Description: SelectScreen kinase assay. The format is biochemical. To be noted: KM ATP, read-out: % control. How it is done: as §1, §2, §3

A further experiment concerns the target T10, MRCK-alpha_h (Homo sapiens, UniProt Q5VT25).
T10 construct: purchased Life Technologies (Invitrogen) SelectScreen, Z'-LYTE / Adapta
Description: SelectScreen kinase assay. Format: biochemical. To be noted: KM ATP, read-out: % control. How it is done:
as §1, §2, §3

Another experiment deals with Syk_h (Homo sapiens, UniProt P43405). Description: SelectScreen kinase assay. Format: biochemical. The protocol:
as §1, §2, §3

Another experiment concerns the target T11, MSSK1_h (Homo sapiens, UniProt Q9UPE1).
T11 construct: purchased Life Technologies (Invitrogen) SelectScreen, Z'-LYTE / Adapta
Description: SelectScreen kinase assay. Format: biochemical. To be noted: KM ATP, read-out: % control. How it is done: as §1, §2, §3

For a further experiment, the target named is Flt3_h (Homo sapiens, UniProt P36888). Description: SelectScreen kinase assay. The format is biochemical. How it is done:
as §1, §2, §3

Another experiment addresses T12, BRK_h (Homo sapiens, UniProt Q13882).
T12 construct: purchased Life Technologies (Invitrogen) SelectScreen, Z'-LYTE / Adapta
The experiment is described as follows: SelectScreen kinase assay. The format is biochemical. To be noted: KM ATP, read-out: % control. The protocol: as §1, §2, §3

The next experiment deals with T13, HIPK4_h (Homo sapiens, UniProt Q8NE63).
T13 construct: purchased Life Technologies (Invitrogen) SelectScreen, Z'-LYTE / Adapta
The experiment is described as follows: SelectScreen kinase assay. To be noted: KM ATP, read-out: % control. The format is biochemical. How it is done: as §1, §2, §3

A further experiment addresses T14, PAK1_h (Homo sapiens, UniProt Q13153).
T14 construct: purchased Life Technologies (Invitrogen) SelectScreen, Z'-LYTE / Adapta
The experiment is described as follows: SelectScreen kinase assay. The format is biochemical. Particulars: KM ATP, read-out: % control. The protocol: as §1, §2, §3

The target of another experiment is T15, NEK2_h (Homo sapiens, UniProt P51955).
T15 construct: purchased Life Technologies (Invitrogen) SelectScreen, Z'-LYTE / Adapta
The experiment is described as follows: SelectScreen kinase assay. Format: biochemical. Particulars: KM ATP, read-out: % control. The protocol: as §1, §2, §3

For another experiment, the target named is T16, DCAMKL2_h (Homo sapiens, UniProt Q8N568).
T16 construct: purchased Life Technologies (Invitrogen) SelectScreen, Z'-LYTE / Adapta
The experiment is described as follows: SelectScreen kinase assay. Format: biochemical. Particulars: KM ATP, read-out: % control. The protocol:
as §1, §2, §3

The next experiment concerns the target T17, FGFR1_h (Homo sapiens, UniProt P11362).
T17 construct: purchased Life Technologies (Invitrogen) SelectScreen, Z'-LYTE / Adapta
The experiment is described as follows: SelectScreen kinase assay. The format is biochemical. To be noted: KM ATP, read-out: % control. How it is done:
as §1, §2, §3

Another experiment addresses T18, Plk2_h (Homo sapiens, UniProt Q9NYY3).
T18 construct: purchased Life Technologies (Invitrogen) SelectScreen, Z'-LYTE / Adapta
Description: SelectScreen kinase assay. The format is biochemical. To be noted: KM ATP, read-out: % control. How it is done:
as §1, §2, §3

The target in the next experiment is T19, Aurora-A_h (Homo sapiens, UniProt O14965).
T19 construct: purchased Life Technologies (Invitrogen) SelectScreen, Z'-LYTE / Adapta
The experiment is described as follows: SelectScreen kinase assay. The format is biochemical. Particulars: KM ATP, read-out: % control. How it is done:
as §1, §2, §3

The target in another experiment is T20, TBK1_h (Homo sapiens, UniProt Q9UHD2).
T20 construct: purchased Life Technologies (Invitrogen) SelectScreen, Z'-LYTE / Adapta
The experiment is described as follows: SelectScreen kinase assay. Particulars: KM ATP, read-out: % control. Format: biochemical. How it is done: as §1, §2, §3

In a further experiment the target is T21, ARK5_h (Homo sapiens, UniProt O60285).
T21 construct: purchased Life Technologies (Invitrogen) SelectScreen, Z'-LYTE / Adapta
The experiment is described as follows: SelectScreen kinase assay. Format: biochemical. To be noted: KM ATP, read-out: % control. How it is done:
as §1, §2, §3

Another experiment concerns the target T22, p70S6K_h (Homo sapiens, UniProt P23443).
T22 construct: purchased Life Technologies (Invitrogen) SelectScreen, Z'-LYTE / Adapta
Description: SelectScreen kinase assay. The format is biochemical. To be noted: KM ATP, read-out: % control. How it is done: as §1, §2, §3

The target of a further experiment is T23, Fes_h (Homo sapiens, UniProt P07332).
T23 construct: purchased Life Technologies (Invitrogen) SelectScreen, Z'-LYTE / Adapta
Description: SelectScreen kinase assay. To be noted: KM ATP, read-out: % control. Format: biochemical. How it is done:
as §1, §2, §3

In a further experiment the target is T24, MARK2_h (Homo sapiens, UniProt Q7KZI7).
T24 construct: purchased Life Technologies (Invitrogen) SelectScreen, Z'-LYTE / Adapta
The experiment is described as follows: SelectScreen kinase assay. Format: biochemical. To be noted: KM ATP, read-out: % control. How it is done: as §1, §2, §3

Another experiment has as its target JAK2_h (Homo sapiens, UniProt O60674). The experiment is described as follows: SelectScreen kinase assay. Format: biochemical. The protocol: as §1, §2, §3
A further experiment concerns the target T25, ROCK-II_h (Homo sapiens, UniProt O75116).
T25 construct: purchased Life Technologies (Invitrogen) SelectScreen, Z'-LYTE / Adapta
The experiment is described as follows: SelectScreen kinase assay. Particulars: KM ATP, read-out: % control. Format: biochemical. The protocol: as §1, §2, §3

A further experiment deals with T26, Ros_h (Homo sapiens, UniProt P08922).
T26 construct: purchased Life Technologies (Invitrogen) SelectScreen, Z'-LYTE / Adapta
Description: SelectScreen kinase assay. The format is biochemical. Particulars: KM ATP, read-out: % control. The protocol:
as §1, §2, §3

The target of another experiment is T27, PRAK_h (Homo sapiens, UniProt Q8IW41).
T27 construct: purchased Life Technologies (Invitrogen) SelectScreen, Z'-LYTE / Adapta
The experiment is described as follows: SelectScreen kinase assay. The format is biochemical. Particulars: KM ATP, read-out: % control. How it is done: as §1, §2, §3

The target of another experiment is T28, IKK1_h (Homo sapiens, UniProt O15111).
T28 construct: purchased Life Technologies (Invitrogen) SelectScreen, Z'-LYTE / Adapta
Description: SelectScreen kinase assay. Format: biochemical. To be noted: KM ATP, read-out: % control. The protocol:
as §1, §2, §3

The target of the next experiment is T29, MRCK-beta_h (Homo sapiens, UniProt Q9Y5S2).
T29 construct: purchased Life Technologies (Invitrogen) SelectScreen, Z'-LYTE / Adapta
Description: SelectScreen kinase assay. Format: biochemical. Particulars: KM ATP, read-out: % control. The protocol: as §1, §2, §3

Another experiment deals with T30, EphB1_h (Homo sapiens, UniProt P54762).
T30 construct: purchased Life Technologies (Invitrogen) SelectScreen, Z'-LYTE / Adapta
The experiment is described as follows: SelectScreen kinase assay. The format is biochemical. Particulars: KM ATP, read-out: % control. How it is done:
as §1, §2, §3

Experiment [1] relates to rat collagen-induced arthritis model. Particulars: 10 or 30 mg/kg b.i.d.; cited from earlier work.
Setting [2] is: 3 µM, KM ATP, read-out: % control.
Setting [3] is: 10-point dose-response, commercial vendor.

The structures appear in SMILES notation. “And” between values parts separate entries of the source, which are not always exact repeats. Identical values can stand only once.

Sequence of Flt3_h (P36888 27-993): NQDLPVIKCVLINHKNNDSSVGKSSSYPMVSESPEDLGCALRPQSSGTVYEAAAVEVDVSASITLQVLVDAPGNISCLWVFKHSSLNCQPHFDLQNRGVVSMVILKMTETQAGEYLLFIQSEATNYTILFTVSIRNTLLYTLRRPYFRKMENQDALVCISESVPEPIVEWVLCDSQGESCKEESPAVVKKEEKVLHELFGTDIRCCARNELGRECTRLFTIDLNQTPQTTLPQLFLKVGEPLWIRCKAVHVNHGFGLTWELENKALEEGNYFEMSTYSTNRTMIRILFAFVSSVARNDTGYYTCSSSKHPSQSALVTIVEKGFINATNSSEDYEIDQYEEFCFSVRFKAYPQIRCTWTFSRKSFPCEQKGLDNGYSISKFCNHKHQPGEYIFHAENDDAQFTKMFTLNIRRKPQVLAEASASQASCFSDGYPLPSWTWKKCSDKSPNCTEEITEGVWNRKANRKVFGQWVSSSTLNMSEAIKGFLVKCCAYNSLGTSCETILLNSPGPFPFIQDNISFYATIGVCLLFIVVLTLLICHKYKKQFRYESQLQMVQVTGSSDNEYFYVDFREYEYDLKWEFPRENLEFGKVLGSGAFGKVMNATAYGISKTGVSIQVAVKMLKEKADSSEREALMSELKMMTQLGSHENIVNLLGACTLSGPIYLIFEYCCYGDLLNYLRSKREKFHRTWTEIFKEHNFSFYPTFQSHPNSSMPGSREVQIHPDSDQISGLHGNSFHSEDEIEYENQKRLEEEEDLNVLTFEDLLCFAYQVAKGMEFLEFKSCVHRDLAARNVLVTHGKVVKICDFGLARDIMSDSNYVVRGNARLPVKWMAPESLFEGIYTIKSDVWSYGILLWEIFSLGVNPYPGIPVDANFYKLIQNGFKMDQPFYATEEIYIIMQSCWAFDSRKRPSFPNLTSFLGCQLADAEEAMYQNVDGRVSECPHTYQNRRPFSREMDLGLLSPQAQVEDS
Sequence of JAK2_h (O60674 whole entry): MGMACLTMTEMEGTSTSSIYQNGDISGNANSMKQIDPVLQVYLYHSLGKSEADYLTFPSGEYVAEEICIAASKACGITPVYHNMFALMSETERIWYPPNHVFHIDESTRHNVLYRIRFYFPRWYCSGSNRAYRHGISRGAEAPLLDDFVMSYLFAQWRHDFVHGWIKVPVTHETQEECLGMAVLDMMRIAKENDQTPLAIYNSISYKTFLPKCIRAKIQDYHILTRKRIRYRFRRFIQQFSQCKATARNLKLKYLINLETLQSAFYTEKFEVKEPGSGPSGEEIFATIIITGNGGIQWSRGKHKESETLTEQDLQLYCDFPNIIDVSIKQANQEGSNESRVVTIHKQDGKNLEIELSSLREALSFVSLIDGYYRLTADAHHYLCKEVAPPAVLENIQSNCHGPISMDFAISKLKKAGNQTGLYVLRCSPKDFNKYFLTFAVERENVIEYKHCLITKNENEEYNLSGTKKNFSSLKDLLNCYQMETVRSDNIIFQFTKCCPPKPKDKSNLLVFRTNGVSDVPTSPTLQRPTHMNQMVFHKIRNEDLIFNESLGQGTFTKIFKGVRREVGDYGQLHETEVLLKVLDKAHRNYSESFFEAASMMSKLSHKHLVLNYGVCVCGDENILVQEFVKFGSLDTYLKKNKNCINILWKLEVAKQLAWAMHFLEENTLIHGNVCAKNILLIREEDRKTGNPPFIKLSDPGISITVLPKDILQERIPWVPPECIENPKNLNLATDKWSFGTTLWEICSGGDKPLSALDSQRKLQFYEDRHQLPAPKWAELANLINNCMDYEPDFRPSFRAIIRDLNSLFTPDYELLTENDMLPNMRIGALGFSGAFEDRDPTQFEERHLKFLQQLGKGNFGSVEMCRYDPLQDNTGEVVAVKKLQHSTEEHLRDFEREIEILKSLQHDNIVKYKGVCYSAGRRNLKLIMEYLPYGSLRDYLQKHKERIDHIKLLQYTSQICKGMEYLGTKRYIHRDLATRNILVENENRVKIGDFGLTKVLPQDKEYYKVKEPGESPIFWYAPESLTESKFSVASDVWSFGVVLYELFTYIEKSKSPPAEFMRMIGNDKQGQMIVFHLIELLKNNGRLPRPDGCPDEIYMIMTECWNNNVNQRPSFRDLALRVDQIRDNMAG
T6 sequence (Q13464 whole entry): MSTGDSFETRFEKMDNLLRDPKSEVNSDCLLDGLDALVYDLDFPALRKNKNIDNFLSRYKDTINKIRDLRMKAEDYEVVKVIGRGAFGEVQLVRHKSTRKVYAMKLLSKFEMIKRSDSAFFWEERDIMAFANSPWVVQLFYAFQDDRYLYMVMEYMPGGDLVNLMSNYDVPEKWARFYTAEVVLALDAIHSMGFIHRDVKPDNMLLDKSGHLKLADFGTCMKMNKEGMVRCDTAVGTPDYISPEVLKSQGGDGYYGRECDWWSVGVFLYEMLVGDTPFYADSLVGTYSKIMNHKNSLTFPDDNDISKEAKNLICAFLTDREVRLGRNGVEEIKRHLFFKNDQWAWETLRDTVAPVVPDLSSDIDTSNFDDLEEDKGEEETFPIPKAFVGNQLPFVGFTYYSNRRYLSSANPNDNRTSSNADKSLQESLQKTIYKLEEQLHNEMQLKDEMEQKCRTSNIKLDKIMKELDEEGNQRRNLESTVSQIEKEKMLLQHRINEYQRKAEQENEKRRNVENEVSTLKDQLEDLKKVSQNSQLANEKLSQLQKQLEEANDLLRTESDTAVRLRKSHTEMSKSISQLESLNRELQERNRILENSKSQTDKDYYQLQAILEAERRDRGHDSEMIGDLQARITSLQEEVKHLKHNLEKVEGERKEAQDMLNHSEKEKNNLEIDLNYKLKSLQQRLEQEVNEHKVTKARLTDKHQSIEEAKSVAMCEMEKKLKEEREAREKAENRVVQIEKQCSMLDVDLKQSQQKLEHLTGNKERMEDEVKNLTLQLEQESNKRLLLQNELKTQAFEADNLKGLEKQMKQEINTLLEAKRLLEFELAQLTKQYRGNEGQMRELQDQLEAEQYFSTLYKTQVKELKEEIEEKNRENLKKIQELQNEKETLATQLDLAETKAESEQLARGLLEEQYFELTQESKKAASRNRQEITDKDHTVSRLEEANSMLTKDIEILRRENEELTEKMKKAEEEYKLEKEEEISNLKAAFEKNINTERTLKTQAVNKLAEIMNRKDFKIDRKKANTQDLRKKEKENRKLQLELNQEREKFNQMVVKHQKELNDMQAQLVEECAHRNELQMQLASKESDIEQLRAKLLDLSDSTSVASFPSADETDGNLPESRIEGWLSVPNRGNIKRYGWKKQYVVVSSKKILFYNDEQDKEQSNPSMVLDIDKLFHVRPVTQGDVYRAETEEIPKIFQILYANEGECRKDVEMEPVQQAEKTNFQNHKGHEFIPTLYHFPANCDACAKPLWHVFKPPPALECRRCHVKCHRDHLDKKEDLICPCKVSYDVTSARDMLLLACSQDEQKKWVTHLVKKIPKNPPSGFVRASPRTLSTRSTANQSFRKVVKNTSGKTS
T7 sequence (O14920 whole entry): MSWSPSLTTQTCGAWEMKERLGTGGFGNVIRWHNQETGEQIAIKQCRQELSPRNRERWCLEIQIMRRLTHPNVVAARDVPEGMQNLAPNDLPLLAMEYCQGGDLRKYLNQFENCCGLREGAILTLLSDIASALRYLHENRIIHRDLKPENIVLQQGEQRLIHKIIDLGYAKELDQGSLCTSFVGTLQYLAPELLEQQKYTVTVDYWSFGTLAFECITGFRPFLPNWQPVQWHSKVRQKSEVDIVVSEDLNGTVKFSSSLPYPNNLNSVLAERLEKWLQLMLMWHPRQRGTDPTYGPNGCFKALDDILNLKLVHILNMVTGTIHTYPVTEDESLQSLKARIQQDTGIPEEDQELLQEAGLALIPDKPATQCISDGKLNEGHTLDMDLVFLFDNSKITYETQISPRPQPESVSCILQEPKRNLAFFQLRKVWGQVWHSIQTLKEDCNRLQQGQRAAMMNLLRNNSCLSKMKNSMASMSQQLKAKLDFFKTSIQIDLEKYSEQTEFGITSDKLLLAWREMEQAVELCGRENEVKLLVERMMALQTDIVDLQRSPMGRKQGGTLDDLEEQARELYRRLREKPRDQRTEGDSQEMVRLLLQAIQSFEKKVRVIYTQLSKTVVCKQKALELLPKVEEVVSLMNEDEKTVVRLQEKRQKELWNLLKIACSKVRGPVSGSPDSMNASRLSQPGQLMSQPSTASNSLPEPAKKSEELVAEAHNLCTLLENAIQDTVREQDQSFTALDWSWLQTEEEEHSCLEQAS
T9 sequence (P42685 whole entry): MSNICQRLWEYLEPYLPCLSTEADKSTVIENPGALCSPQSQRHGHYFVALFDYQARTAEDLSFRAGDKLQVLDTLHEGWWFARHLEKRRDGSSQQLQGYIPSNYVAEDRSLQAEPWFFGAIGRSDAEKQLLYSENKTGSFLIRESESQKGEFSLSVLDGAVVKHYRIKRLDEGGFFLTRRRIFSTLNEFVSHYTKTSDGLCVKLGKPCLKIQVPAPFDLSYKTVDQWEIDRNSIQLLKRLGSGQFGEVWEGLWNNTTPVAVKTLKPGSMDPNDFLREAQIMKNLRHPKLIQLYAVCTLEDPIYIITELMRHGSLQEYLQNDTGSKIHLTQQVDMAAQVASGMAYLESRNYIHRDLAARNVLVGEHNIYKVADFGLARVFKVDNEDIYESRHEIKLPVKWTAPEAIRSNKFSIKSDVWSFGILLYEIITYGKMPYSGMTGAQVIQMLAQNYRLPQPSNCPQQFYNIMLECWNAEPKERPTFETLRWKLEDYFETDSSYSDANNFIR

Consider `c1cc(CC2CCOCC2)n2nc(Nc3ccc4c(NC5CCOCC5)n[nH]c4c3)nc2c1` [CC-509, [3-(2H-3,4,5,6-tetrahydropyran-4-ylamino)(1H-indazol-6-yl)][5-(2H-3,4,5,6-tetrahydropyran-4-ylmethyl)(2H-1,2,4-triazolo[1,5-a]pyridin-2-yl)]amine], for which the inhibition at 10 µM against 5-lipoxygenase turned out to be 73%. Further, the remaining activity at 3 µM on EGFR_T790M_L858R_h turned out to be 52%; on MuSK_h, 41%; on EphA8_h, 91%; at MAPKAP-K2_h it was 96%; on ROCK-I_h, 70%; on IKK-beta_h, 99%. Moreover, the remaining activity at 3 µM is 97% at EGFR_h; 86% on PTK5_h; 91% on MRCK-alpha_h; -2% on Syk_h (setting [2]); 98% on MSSK1_h; 6% on Flt3_h (setting [2]). In addition, the remaining activity at 3 µM came out at 87% at BRK_h; 100% at HIPK4_h; 94% on PAK1_h; 101% on NEK2_h; 98% at DCAMKL2_h; 69% at FGFR1_h. The remaining activity at 3 µM was determined as 96% at Plk2_h; 6% at Aurora-A_h; 10% at TBK1_h; 7% on ARK5_h; 89% on p70S6K_h; 53% at Fes_h. Also, the remaining activity at 3 µM on MARK2_h came to 55%; at JAK2_h (setting [2]), 4%; at ROCK-II_h it was 69%; on Ros_h it was 74%; on PRAK_h it was 91%; at IKK1_h, 106%. Moreover, the remaining activity at 3 µM worked out at 94% at MRCK-beta_h and 41% on EphB1_h. The half-maximal inhibitory concentration (IC50) against Syk_h (setting [3]) is 27.3 nM; against Flt3_h (setting [3]), 140 nM and 143 nM; at JAK2_h (setting [3]) it was 18.9 nM.
Consider `COc1cc(Nc2ncc(F)c(Nc3ccc4c(n3)NC(=O)C(C)(C)O4)n2)cc(OC)c1OC` [R406, reference compound], for which the “clinical paw score in rat CIA” value in experiment [1] is recorded as “significantly reduced”.
